Results on 10 molecules are retold here after ChEMBL document CHEMBL1201862, “PubChem BioAssay data set” (2004).

For assay [1], the target named is G-protein coupled receptor 35 (Homo sapiens, UniProt Q9HC97). The assay can be described thus: inhibition of zaprinast-stimulated GPR35 beta-arrestin translocation – imaging, U2OS, beta-arrestin-GFP, zaprinast agonist, primary screen (AID 2058).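 Also: antagonist potency meaning inhibition of agonist-induced arrestin redistribution.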 It is filed as functional.
Sequence of G-protein coupled receptor 35 (Q9HC97 whole entry): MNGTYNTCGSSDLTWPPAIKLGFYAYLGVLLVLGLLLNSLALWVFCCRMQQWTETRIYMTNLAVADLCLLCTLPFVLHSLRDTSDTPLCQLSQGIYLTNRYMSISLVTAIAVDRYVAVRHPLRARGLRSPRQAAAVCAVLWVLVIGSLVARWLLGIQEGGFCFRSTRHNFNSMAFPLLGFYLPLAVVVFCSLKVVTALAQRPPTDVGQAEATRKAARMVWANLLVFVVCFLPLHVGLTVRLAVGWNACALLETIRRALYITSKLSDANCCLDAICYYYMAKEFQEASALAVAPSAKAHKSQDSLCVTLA
The target of assay [2] is T1, Short transient receptor potential channel 4 (Mus musculus, UniProt Q9QUQ5).
T1 sequence (Q9QUQ5 whole entry): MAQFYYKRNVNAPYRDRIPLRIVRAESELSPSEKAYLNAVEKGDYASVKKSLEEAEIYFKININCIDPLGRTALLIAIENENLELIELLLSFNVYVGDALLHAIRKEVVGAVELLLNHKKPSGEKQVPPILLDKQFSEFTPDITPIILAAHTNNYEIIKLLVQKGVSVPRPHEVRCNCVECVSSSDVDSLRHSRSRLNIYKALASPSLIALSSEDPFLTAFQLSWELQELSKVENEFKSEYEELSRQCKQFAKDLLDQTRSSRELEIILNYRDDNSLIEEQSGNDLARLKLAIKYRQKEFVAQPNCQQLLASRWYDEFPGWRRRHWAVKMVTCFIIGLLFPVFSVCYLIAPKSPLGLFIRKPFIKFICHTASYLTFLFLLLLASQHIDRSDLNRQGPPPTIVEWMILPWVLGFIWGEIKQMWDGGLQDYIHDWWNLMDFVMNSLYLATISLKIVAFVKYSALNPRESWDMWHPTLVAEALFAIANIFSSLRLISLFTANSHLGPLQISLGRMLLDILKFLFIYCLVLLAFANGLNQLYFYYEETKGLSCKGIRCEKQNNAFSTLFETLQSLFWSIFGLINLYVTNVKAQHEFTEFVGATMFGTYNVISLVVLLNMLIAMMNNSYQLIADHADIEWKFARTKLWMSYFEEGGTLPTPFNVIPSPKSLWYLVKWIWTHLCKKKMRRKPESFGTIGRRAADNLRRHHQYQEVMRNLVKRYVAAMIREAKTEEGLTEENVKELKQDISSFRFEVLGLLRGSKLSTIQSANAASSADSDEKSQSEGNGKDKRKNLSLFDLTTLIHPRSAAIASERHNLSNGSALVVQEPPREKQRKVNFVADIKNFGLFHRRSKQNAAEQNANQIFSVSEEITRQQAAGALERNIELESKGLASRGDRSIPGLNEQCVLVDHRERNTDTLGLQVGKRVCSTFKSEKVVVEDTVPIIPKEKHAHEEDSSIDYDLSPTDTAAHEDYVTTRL
The assay can be described thus: block of DAMGO-driven TRPC4 calcium entry – cell-based, HEK293 TRPC4/mu-opioid, Fluo-4 calcium, dose response (AID 434942).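 Also: potency of inhibitors blocking the TRPC4 calcium response.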 In kind it is functional.

Assay [3] addresses Voltage-dependent T-type calcium channel subunit alpha-1H (Homo sapiens, UniProt O95180). In kind it is functional.
Assay [4] deals with Aspartyl aminopeptidase (Plasmodium falciparum 3D7, UniProt Q8I2J3).
Assay [5] has as its target Procathepsin L (Homo sapiens, UniProt P07711).
In assay [6] the target is Alkaline phosphatase, placental type (Homo sapiens, UniProt P05187). The assay can be described thus: human placental alkaline phosphatase inhibition – biochemical, luminescence, confirmation (AID 1512). It is filed as functional.
Sequence of Alkaline phosphatase, placental type (P05187 whole entry): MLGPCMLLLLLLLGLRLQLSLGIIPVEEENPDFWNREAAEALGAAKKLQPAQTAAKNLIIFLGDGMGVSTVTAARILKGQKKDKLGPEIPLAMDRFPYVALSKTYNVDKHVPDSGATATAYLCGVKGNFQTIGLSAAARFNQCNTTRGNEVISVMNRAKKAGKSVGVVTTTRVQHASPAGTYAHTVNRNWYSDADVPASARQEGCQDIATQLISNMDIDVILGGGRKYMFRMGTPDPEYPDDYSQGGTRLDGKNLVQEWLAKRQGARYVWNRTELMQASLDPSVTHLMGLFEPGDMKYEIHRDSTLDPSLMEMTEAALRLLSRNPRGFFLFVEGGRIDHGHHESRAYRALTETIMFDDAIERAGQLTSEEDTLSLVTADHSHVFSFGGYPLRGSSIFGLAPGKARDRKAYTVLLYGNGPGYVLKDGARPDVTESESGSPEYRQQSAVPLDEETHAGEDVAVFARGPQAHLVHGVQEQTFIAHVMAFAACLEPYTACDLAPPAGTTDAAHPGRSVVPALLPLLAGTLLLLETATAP
Assay [7] in a line: mRNA 3' processing disruption, beta-gal signal increase – luminescence, S. cerevisiae SKY197-pL101, dose response (AID 2525). In kind it is functional, cell-based.
The target of assay [8] is Melanin-concentrating hormone receptor 1 (Homo sapiens, UniProt Q99705). Description: Fluorescence-based counterscreen for antagonists of the G-protein coupled receptor 7 (GPR7): cell-based high throughput dose response assay to identify antagonists of the melanin-concentrating hormone receptor 1 (MCHR1). In kind it is functional.
Sequence of Melanin-concentrating hormone receptor 1 (Q99705 whole entry): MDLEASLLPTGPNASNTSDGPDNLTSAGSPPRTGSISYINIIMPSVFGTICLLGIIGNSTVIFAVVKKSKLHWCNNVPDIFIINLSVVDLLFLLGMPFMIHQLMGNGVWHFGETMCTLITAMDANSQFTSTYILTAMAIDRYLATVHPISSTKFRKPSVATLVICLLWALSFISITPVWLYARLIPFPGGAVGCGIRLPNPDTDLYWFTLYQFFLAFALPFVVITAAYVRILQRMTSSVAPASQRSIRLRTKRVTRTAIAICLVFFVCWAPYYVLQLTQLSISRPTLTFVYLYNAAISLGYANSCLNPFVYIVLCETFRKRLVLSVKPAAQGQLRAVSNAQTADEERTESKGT
A short description of assay [9]: Counterscreen for IDE inhibitors: Luminescence-based cell-based high throughput dose response assay to identify compounds that are cytotoxic to HEK cells. [Related pubchem assays: 434962 (Primary screen (IDE inhibitors in singlicate)), 449730 (Counterscreen (Cytotoxicity in triplicate)), 435028 (Confirmation (IDE inhibitors in triplicate)) …. In kind it is functional. To be noted: HEK293.

Assay [10] has as its target T2, Insulin-degrading enzyme (Homo sapiens, UniProt P14735).
T2 sequence (P14735 whole entry): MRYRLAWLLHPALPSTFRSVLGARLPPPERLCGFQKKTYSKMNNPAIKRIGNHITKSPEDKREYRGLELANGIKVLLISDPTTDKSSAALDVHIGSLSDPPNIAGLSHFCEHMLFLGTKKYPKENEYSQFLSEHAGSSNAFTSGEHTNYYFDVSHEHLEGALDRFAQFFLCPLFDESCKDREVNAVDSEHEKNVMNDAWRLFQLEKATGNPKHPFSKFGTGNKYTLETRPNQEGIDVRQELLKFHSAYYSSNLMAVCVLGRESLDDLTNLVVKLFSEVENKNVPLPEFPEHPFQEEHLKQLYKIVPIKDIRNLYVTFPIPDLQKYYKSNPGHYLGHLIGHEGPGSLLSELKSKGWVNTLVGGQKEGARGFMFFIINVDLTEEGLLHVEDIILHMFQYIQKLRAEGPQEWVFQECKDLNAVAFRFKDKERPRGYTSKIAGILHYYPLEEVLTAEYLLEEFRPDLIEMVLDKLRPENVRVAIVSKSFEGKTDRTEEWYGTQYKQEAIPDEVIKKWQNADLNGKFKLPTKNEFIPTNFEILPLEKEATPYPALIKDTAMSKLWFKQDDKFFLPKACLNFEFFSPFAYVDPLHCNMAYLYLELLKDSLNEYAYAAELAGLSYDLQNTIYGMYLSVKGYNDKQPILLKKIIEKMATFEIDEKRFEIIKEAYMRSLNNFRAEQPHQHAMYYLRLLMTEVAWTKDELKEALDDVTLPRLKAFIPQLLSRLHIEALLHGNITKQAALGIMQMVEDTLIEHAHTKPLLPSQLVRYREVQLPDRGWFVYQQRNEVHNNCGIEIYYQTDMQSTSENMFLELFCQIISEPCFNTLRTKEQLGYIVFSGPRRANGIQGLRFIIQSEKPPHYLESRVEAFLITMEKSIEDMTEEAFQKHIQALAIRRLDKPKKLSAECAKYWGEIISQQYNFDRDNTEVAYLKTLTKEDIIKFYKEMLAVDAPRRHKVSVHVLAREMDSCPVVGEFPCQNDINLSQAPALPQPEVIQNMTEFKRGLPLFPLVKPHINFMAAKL
The assay can be described thus: Dose Response: Fluorescence polarization-based cell-based high throughput dose response assay for inhibitors of insulin-degrading enzyme (IDE). [Related pubchem assays: 434962 (Primary screen (IDE inhibitors in singlicate)), 449730 (Counterscreen (Cytotoxicity in triplicate)), 435028 (Confirmation (IDE inhibitors in triplicate)), 434984 (Summary …. In kind it is functional.

Assay [11] has as its target Muscarinic acetylcholine receptor M4 (Rattus norvegicus, UniProt P08485). The assay can be described thus: Discovery of novel allosteric modulators of the M1 muscarinic receptor: Agonist NMS competition at M4. [Related pubchem assays: 626, 1488, 1741 ]. In kind it is functional.
For assay [12], the target named is Muscarinic acetylcholine receptor M2 (Homo sapiens, UniProt P08172). Description: Discovery of novel allosteric modulators of the M1 muscarinic receptor: Agonist NMS competition at M2. [Related pubchem assays: 626 (Discovery of Novel Allosteric Modulators of the M1 Muscarinic Receptor: Agonist Primary Screen), 1488 (Discovery of novel allosteric modulators of the M1 muscarinic receptor: Agonist Confirmation Assay)]. It is filed as functional.
Sequence of Muscarinic acetylcholine receptor M2 (P08172 whole entry): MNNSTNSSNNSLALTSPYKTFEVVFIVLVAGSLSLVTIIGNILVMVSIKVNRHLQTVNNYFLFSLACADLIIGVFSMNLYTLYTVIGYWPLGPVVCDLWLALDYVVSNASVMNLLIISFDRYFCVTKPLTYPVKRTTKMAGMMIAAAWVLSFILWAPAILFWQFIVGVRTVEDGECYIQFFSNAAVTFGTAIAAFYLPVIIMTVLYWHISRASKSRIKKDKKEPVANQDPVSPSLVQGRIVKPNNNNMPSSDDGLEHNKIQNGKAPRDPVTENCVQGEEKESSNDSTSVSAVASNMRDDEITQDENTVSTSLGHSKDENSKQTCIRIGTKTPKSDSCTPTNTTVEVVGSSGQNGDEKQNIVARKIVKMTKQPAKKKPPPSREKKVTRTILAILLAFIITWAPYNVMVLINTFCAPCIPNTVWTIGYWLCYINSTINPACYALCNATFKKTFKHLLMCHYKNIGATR

Assay [13] addresses Muscarinic acetylcholine receptor M5 (Homo sapiens, UniProt P08912). The assay can be described thus: Discovery of novel allosteric modulators of the M1 muscarinic receptor: Agonist NMS competition at M5. [Related pubchem assays: 1488 (Discovery of novel allosteric modulators of the M1 muscarinic receptor: Agonist Confirmation Assay), 626 (Discovery of Novel Allosteric Modulators of the M1 Muscarinic Receptor: Agonist Primary Screen)]. It is filed as functional.

Assay [14] deals with Muscarinic acetylcholine receptor M3 (Homo sapiens, UniProt P20309). Description: Discovery of novel allosteric modulators of the M1 muscarinic receptor: Agonist NMS competition at M3. [Related pubchem assays: 1488 (Discovery of novel allosteric modulators of the M1 muscarinic receptor: Agonist Confirmation Assay), 626 (Discovery of Novel Allosteric Modulators of the M1 Muscarinic Receptor: Agonist Primary Screen)]. It is filed as functional.

Assay [15] deals with Muscarinic acetylcholine receptor M1 (Rattus norvegicus, UniProt P08482). The assay can be described thus: Discovery of novel allosteric modulators of the M1 muscarinic receptor: Agonist NMS binding at M1. [Related pubchem assays: 626 ].
Sequence of Muscarinic acetylcholine receptor M1 (P08482 whole entry): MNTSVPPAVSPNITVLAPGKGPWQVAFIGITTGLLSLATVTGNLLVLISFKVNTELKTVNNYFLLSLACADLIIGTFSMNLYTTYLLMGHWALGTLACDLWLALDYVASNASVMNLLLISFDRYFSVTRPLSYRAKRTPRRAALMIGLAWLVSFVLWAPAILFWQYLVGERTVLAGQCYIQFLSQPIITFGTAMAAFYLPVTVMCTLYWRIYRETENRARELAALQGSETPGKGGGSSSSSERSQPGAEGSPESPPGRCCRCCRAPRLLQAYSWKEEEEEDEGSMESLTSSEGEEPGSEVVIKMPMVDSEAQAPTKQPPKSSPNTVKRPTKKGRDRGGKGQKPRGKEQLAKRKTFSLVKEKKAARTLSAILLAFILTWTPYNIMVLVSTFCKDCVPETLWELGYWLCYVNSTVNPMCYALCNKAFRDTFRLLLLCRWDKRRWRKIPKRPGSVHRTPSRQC
The test system of assay [16] is Streptococcus sp. 'group A'. Description: Streptococcus pyogenes SK(-)GAS viability under kanamycin – luminescence, BacTiterGlo, confirmation, counter-screen for streptokinase expression inhibitor project, dose response (AID 1900). It is filed as functional, organism-based.
The subject of assay [17] is Streptococcus. Description: Luminescence Microorganism-Based Dose Response Follow up to Identify Compounds Cytotoxic to Streptococcus. [Related pubchem assays: 1677 (Project Summary), 1915, 1914, 1902 (Retest at Dose), 1900 (Counter Screen), 1662 (Primary HTS)]. In kind it is functional, organism-based.
For assay [18], the target named is T3, Streptokinase A (Streptococcus pyogenes serotype M1, UniProt P10520).
T3 sequence (P10520 whole entry): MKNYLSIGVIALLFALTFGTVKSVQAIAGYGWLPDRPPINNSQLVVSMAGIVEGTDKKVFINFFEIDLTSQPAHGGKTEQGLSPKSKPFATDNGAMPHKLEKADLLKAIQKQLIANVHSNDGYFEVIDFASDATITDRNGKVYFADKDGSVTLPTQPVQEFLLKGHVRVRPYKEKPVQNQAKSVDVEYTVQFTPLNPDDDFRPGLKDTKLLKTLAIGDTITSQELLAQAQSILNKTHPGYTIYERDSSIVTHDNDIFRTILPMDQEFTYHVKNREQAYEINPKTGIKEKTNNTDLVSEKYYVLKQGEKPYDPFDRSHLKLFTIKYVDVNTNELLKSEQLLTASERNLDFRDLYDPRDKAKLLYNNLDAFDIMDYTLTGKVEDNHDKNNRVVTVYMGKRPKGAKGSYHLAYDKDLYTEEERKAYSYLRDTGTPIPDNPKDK
Description: viability-normalized secreted streptokinase activity reduction – plasminogen activation absorbance, OD405, dose response (AID 1914).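 Also: secreted streptokinase activity via plasminogen activation per viability signal from cell pellet.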 It is filed as functional, Streptococcus pyogenes M1 GAS.

The test system of assay [19] is Streptococcus. The assay can be described thus: GAS UMAA2166 growth inhibition – luminescence, BacTiterGlo, counter-screen for streptokinase expression inhibitor project, dose response (AID 1915).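 Also: potency for reduction of bacterial viability or growth.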 In kind it is functional, organism-based.
The target of assay [20] is Glyceraldehyde-3-phosphate dehydrogenase (Homo sapiens, UniProt P04406).
Sequence of Glyceraldehyde-3-phosphate dehydrogenase (P04406 whole entry): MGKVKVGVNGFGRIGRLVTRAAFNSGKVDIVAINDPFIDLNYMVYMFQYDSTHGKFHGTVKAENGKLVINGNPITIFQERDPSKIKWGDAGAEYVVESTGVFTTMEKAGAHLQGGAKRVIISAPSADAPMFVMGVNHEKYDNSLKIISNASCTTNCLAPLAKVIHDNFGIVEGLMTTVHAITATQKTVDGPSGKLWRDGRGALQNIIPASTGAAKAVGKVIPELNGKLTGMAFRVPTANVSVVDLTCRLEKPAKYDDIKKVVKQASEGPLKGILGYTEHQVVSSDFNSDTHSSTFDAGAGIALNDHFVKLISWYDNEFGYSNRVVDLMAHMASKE
Assay [21] deals with Heat shock cognate 71 kDa protein (Homo sapiens, UniProt P11142). The assay can be described thus: In Vitro Hsc70 Dose Response Fluorescence Polarization Assay. [Related pubchem assays: 1072 ].
Sequence of Heat shock cognate 71 kDa protein (P11142 whole entry): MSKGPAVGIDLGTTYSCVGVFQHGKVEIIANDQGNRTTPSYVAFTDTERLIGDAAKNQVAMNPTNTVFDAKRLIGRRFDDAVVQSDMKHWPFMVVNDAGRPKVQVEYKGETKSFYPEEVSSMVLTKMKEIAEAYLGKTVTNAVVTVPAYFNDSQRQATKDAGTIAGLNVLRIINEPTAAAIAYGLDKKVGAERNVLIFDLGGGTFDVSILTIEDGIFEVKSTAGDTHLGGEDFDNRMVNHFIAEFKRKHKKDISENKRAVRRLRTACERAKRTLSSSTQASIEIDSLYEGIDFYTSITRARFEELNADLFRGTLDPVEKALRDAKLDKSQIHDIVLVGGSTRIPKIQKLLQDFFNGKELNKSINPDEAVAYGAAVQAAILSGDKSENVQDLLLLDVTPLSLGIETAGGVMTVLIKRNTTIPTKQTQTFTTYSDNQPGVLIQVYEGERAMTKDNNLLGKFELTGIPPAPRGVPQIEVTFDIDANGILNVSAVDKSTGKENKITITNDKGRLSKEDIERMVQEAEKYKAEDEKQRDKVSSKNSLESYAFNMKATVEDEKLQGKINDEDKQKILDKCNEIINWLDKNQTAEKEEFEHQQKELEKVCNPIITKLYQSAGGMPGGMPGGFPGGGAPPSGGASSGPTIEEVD
Assay [22] has as its target Protein Rev (Human immunodeficiency virus type 1 group M subtype B (isolate WMJ22)(HIV-1), UniProt P05866). The assay can be described thus: inhibitors of Rev protein–RRE RNA complex – biochemical, protein-RNA interaction, dose response (AID 842). On the set-up: species or system Human immunodeficiency virus 1.

SMILES strings stand for the structures. Active and inactive are the calls of the source. Where only a bound is given, the exact number is not on record here.

Sequence of Muscarinic acetylcholine receptor M4 (P08485 whole entry): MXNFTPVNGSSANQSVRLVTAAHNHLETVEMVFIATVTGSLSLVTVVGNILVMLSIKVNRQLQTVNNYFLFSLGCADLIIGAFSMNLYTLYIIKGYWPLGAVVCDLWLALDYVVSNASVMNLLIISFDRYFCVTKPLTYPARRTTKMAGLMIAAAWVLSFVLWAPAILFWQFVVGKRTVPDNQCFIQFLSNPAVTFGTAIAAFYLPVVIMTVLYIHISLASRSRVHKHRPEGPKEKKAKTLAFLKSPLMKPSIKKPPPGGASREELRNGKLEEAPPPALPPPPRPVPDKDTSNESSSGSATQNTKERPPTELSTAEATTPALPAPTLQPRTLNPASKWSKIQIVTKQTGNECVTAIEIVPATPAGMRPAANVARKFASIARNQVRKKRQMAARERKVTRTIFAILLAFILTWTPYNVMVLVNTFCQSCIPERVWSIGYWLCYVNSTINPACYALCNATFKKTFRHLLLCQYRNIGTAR
Sequence of Muscarinic acetylcholine receptor M5 (P08912 whole entry): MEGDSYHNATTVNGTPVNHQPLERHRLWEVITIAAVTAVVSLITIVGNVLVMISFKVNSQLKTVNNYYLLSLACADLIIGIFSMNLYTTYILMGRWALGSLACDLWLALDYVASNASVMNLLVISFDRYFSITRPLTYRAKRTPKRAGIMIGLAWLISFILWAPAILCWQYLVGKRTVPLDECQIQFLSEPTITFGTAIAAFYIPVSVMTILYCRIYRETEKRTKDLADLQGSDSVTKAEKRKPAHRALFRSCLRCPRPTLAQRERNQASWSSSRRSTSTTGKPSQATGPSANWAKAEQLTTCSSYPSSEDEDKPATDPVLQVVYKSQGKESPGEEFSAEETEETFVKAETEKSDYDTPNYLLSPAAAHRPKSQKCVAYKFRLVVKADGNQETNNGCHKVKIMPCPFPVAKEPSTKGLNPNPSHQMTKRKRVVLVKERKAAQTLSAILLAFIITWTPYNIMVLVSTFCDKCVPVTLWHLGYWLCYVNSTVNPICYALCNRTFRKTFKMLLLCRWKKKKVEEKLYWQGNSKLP
Sequence of Protein Rev (P05866 whole entry): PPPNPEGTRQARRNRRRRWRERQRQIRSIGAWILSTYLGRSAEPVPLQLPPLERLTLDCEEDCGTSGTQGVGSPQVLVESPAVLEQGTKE
Sequence of Procathepsin L (P07711 whole entry): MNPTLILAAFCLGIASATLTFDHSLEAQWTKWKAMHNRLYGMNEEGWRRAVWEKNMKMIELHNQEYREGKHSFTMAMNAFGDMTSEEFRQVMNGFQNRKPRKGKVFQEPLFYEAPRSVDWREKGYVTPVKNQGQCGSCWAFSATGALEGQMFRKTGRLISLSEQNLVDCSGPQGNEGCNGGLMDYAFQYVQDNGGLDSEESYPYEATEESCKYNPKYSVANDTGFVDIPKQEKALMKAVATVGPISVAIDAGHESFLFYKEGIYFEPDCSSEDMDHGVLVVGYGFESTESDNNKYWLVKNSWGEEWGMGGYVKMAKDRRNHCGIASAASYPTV

For the molecule `COc1ccc2nc(C)cc(NCc3ccc(F)cc3)c2c1`, the IC50 in assay [1] is 2.6 µM (active). Moreover, the EC50 in assay [2] is 5.96 µM (active).

Regarding `C=CCOc1c(Br)cc(CNc2nccs2)cc1OC`, in [3], the EC50 is 6.12 µM (active).

Regarding `O=C(NCc1cccnc1)NC1(C(F)(F)F)Oc2ccc(Cl)cc2O1` (configuration not stated), the figures for the IC50 in assay [4], in assay [5] and in assay [6] were 1.58 µM (active), > 59.6 µM (not active) and 8.54 µM (active), respectively.

In the case of `O=C(O)CN1C(=O)/C(=C\c2ccc(N3CCCCC3)o2)SC1=S`, the EC50 in assay [7] is 12.4 µM (active).

Consider `Cc1ccccc1CN1C[C@@H]2C[C@@H](c3c[nH]nc3-c3ccc(F)cc3)N3CCC[C@@]23C1=O`, for which, in assay [8], the IC50 was 25.4 µM (not active).

As for `Cn1c2ccccc2c2cc(/C=C(\NC(=O)c3ccccc3)C(=O)NCC(=O)O)ccc21`, the results for the IC50 in assay [9] and in assay [10] were > 55.7 µM (not active) and 42.5 µM (not active), respectively.

Regarding `CCOC(=O)N1CCC(NCCNC(=O)c2ccccc2)CC1`, the EC50 is 21.4 µM (inconclusive) in [11]; 28 µM (inconclusive) in [12]; 64.6 µM (inconclusive) in assay [13]; 12.4 µM (inconclusive) in assay [14]; 36.5 µM (inconclusive) in [15].

As to `COCc1cc(Sc2c(Cl)cccc2Cl)nc(-c2ccccc2)n1`, the EC50 in assay [16] is 8.22 µM (active); in [17], > 500 µM (not active); in assay [18] it was 9.31 µM (active); in [19] it was > 150 µM (not active).

Turning to `Nc1ncnc2c1ncn2[C@@H]1O[C@H](COP(=O)(O)OP(=O)(O)O)[C@@H](O)[C@H]1O` [ADENOSINE DIPHOSPHATE], the IC50 in [20] is > 5 µM (inconclusive); in assay [21], 0.28 µM (active).

In the case of `CC1=NOC(=O)/C1=C/c1ccc(N(C)C)cc1`, in [22], the IC50 is 2.86 µM (active).
